Measurements reported in US10272095B2 (GlaxoSmithKline Intellectual Property Development Limited, priority 2015, dated 2019).
Counter-ions that a name gives are not always drawn.

The compounds below were run on NQO1 specific enzyme activity in BEAS-2B cells (assay: BEAS-2B NQO1 MTT assay). Conditions: Homo sapiens, BEAS-2B, 48 h, NQO1 specific enzyme activity induction in BEAS-2B cells, 48 hours; read-out: EC50.
Assay type: cell-based
Excerpt: NAD(P)H:quinone oxidoreductase 1 (NQO1), also called DT diaphorase, is a homodimeric FAD-containing enzyme that catalyzes obligatory NAD(P)H-dependent two-electron reductions of quinones and protects cells against the toxic and neoplastic effects of free radicals and reactive oxygen species arising from one-electron reductions. The transcription of NQO1 is finely regulated by NRF2, and thus NQO1 activity is a good marker for NRF2 activation. On day one, frozen BEAS-2B cells (ATCC) are thawed in a water bath, counted, and re-suspended at a concentration of 250,000 cells/mL. Fifty microliters of cells are plated in 384 well black clear-bottomed plates. Plates are incubated at 37° C., 5% CO2 overnight. On day two, plates are centrifuged and 50 nL of compound or controls are added to the cells. Plates are then incubated at 37° C., 5% CO2 for 48 hours. On day four, medium is aspirated from the plate and crude cell lysates are made by adding 13 uL of 1× Cell Signaling Technologies lysis buffer with 1 Complete, Mini, EDTA-free Protease Inhibitor Tablet (Roche) for each 10 mL of lysis buffer. After lysis plates are incubated for 20 minutes at room temperature. Two microliters of lysate are removed for use in Cell Titer Glo assay (Promega) and MTT cocktail is prepared (Prochaska et. al. 1998) for measurement of NQO1 activity. Fifty microliters of MTT cocktail is added to each well, plate is centrifuged, and analyzed on an Envision plate reader (Perkin Elmer) using Absorbance 570 nm label for 30 minutes. Product formation is measured kinetically and the pEC50 of NQO1 specific activity induction is calculated by plotting the change in absorbance (Delta OD/min) versus the log of compound concentration followed by 3-parameter fitting.
EC50s<1 nM (+++++), EC50s 10 nM-1 nM (++++), EC50s 10-100 nM (+++), EC50s 100 nM-1 uM (++), EC50s 1 uM-10 uM (+), EC50s>10 uM (−), or were not determined (ND).

Row | Compound | EC50 [nM]
1 | Cc1c([C@@H](CC(=O)O)c2ccc3c(c2)[C@H](N2Cc4ccccc4OC(C)(C)C2)CC3)ccc2c1nnn2C (single isomer, unassigned) [Example 41, 3-(1,4-Dimethyl-1H-benzo[d][1,2,3]triazol-5-yl)-3-(3-(2,2-dimethyl-2,3-dihydrobenzo[f][1,4]oxazepin-4(5H)-yl)-2,3-dihydro-1H-inden-5-yl)propanoic Acid, Formic Acid Salt] | 1 to 10
2 | CCCC1CCC(CN2C(=O)CC3Cc4ccc(C(CC(=O)O)c5ccc6c(nnn6C)c5C)cc4C32)CC1 (stereo not shown) [Example 5, 3-(1,4-Dimethyl-1H-1,2,3-benzotriazol-5-yl)-3-{2-oxo-1-[(4-propylcyclohexyl)methyl]-1H,2H,3H,3aH,4H,8bH-indeno[1,2-b]pyrrol-7-yl}propanoic Acid] | 1 to 10
3 | Cc1ccc2c(c1)CN(C1CCc3ccc(C(CC(=O)O)c4ccc5c(nnn5C)c4C)cc31)CC(C)(C)O2 (stereo not shown) [Example 22, 3-(1,4-Dimethyl-1H-benzo[d][1,2,3]triazol-5-yl)-3-(3-(2,2,7-trimethyl-2,3-dihydrobenzo[f][1,4]oxazepin-4(5H)-yl)-2,3-dihydro-1H-inden-5-yl)propanoic Acid] | 1 to 10
4 | COc1cc(C(CC(=O)O)c2ccc3c(c2)C(N2Cc4cnccc4OC(C)(C)C2)CC3)c(C)c2nnn(C)c12 (stereo not shown) [Example 36, 3-(3-(2,2-Dimethyl-2,3-dihydropyrido[3,4-f][1,4]oxazepin-4(5H)-yl)-2,3-dihydro-1H-inden-5-yl)-3-(7-methoxy-1,4-dimethyl-1H-benzo[d][1,2,3]triazol-5-yl)propanoic Acid, Formic Acid Salt] | 1 to 10
5 | CC[C@@H]1CN(C2CCc3ccc(C(CC(=O)O)c4ccc5c(nnn5C)c4C)cc32)Cc2ccccc2O1 (stereo partly drawn) [Example 50, 3-(1,4-Dimethyl-1H-benzo[d][1,2,3]triazol-5-yl)-3-(3-((R)-2-ethyl-2,3-dihydrobenzo[f][1,4]oxazepin-4(5H)-yl)-2,3-dihydro-1H-inden-5-yl)propanoic Acid, Formic Acid Salt] | 10 to 100
6 | Cc1c(C(CC(=O)O)c2ccc3c(c2)C(N2Cc4ccccc4O[C@H](C)C2)CC3)ccc2c1nnn2C (stereo partly drawn) [Example 53, 3-(1,4-Dimethyl-1H-benzo[d][1,2,3]triazol-5-yl)-3-(3-((R)-2-methyl-2,3-dihydrobenzo[f][1,4]oxazepin-4(5H)-yl)-2,3-dihydro-1H-inden-5-yl)propanoic Acid] | 100 to 1000
7 | Cc1c(C(c2ccc3c(c2)C(N2Cc4ccccc4OC(C)(C)C2)CC3)C(C)(C)C(=O)O)ccc2c1nnn2C (stereo not shown) [Example 27, 3-(1,4-Dimethyl-1H-benzo[d][1,2,3]triazol-5-yl)-3-(3-(2,2-dimethyl-2,3-dihydrobenzo[f][1,4]oxazepin-4(5H)-yl)-2,3-dihydro-1H-inden-5-yl)-2,2-dimethylpropanoic Acid, 2 Formic Acid Salt] | < 1
8 | Cc1c(C(c2ccc3c(c2)C(N2CCOc4ncccc4C2)CC3)C(C)(C)C(=O)O)ccc2c1nnn2C (stereo not shown) [Example 54, 3-(3-(2,3-Dihydropyrido[3,2-f][1,4]oxazepin-4(5H)-yl)-2,3-dihydro-1H-inden-5-yl)-3-(1,4-dimethyl-1H-benzo[d][1,2,3]triazol-5-yl)-2,2-dimethylpropanoic Acid, Formic Acid Salt, Formic Acid Salt] | 100 to 1000
9 | Cc1c(C(c2ccc3c(c2)C(N2Cc4cccnc4OC(C)(C)C2)CC3)C(C)(C)C(=O)O)ccc2c1nnn2C (stereo not shown) [Example 34, 3-(1,4-Dimethyl-1H-benzo[d][1,2,3]triazol-5-yl)-3-(3-(2,2-dimethyl-2,3-dihydropyrido[3,2-f][1,4]oxazepin-4(5H)-yl)-2,3-dihydro-1H-inden-5-yl)-2,2-dimethylpropanoic acid, Formic Acid Salt] | 1 to 10
10 | Cc1c([C@@H](c2ccc3c(c2)[C@@H](N2Cc4ccccc4OC(C)(C)C2)CC3)C(C)(C)C(=O)O)ccc2c1nnn2C (stereo in doubt) [Example 80, rel-(R)-3-(1,4-Dimethyl-1H-benzo[d][1,2,3]triazol-5-yl)-3-(rel-(S)-3-(2,2-dimethyl-2,3-dihydrobenzo[f][1,4]oxazepin-4(5H)-yl)-2,3-dihydro-1H-inden-5-yl)-2,2-dimethylpropanoic acid] | 100 to 1000
11 | Cc1ccc2c(c1)CN(C1CCc3ccc(C(CC(=O)O)c4ccc5c(nnn5C)c4C)cc31)C[C@@H](C)O2 (stereo partly drawn) [Example 47, 3-(1,4-Dimethyl-1H-benzo[d][1,2,3]triazol-5-yl)-3-(3-((R)-2,7-dimethyl-2,3-dihydrobenzo[f][1,4]oxazepin-4(5H)-yl)-2,3-dihydro-1H-inden-5-yl)propanoic Acid, Formic Acid Salt] | 10 to 100
12 | Cc1ccc2c(c1)CN(C1CCc3ccc(C(c4ccc5c(nnn5C)c4C)C(C)(C)C(=O)O)cc31)C[C@@H](C)O2 (stereo partly drawn) [Example 31, 3-(1,4-Dimethyl-1H-benzo[d][1,2,3]triazol-5-yl)-3-(3-((R)-2,7-dimethyl-2,3-dihydrobenzo[f][1,4]oxazepin-4(5H)-yl)-2,3-dihydro-1H-inden-5-yl)-2,2-dimethylpropanoic Acid, Formic Acid Salt] | 1 to 10
13 | COc1cc(C(CC(=O)O)c2ccc3c(c2)C(N2Cc4cccnc4OC(C)(C)C2)CC3)c(C)c2nnn(C)c12 (stereo not shown) [Example 44, 3-(3-(2,2-Dimethyl-2,3-dihydropyrido[3,2-f][1,4]oxazepin-4(5H)-yl)-2,3-dihydro-1H-inden-5-yl)-3-(7-methoxy-1,4-dimethyl-1H-benzo[d][1,2,3]triazol-5-yl)propanoic Acid, Formic Acid Salt] | 1 to 10
14 | Cc1c([C@H](c2ccc3c(c2)[C@@H](N2Cc4ccccc4OC(C)(C)C2)CC3)C(C)(C)C(=O)O)ccc2c1nnn2C (stereo in doubt) [Example 78, rel-(S)-3-(1,4-Dimethyl-1H-benzo[d][1,2,3]triazol-5-yl)-3-(rel-(S)-3-(2,2-dimethyl-2,3-dihydrobenzo[f][1,4]oxazepin-4(5H)-yl)-2,3-dihydro-1H-inden-5-yl)-2,2-dimethylpropanoic acid] | 1 to 10
15 | COc1cc(C(CC(=O)O)c2ccc3c(c2)C(N2Cc4cc(C)ccc4O[C@H](C)C2)CC3)c(C)c2nnn(C)c12 (stereo partly drawn) [Example 39, 3-(3-((R)-2,7-Dimethyl-2,3-dihydrobenzo[f][1,4]oxazepin-4(5H)-yl)-2,3-dihydro-1H-inden-5-yl)-3-(7-methoxy-1,4-dimethyl-1H-benzo[d][1,2,3]triazol-5-yl)propanoic Acid, Formic Acid Salt] | 1 to 10
16 | Cc1c(C(CC(=O)O)c2ccc3c(c2)C(N2Cc4ccccc4O[C@H](C)C2)CCC3)ccc2c1nnn2C (stereo partly drawn) [Example 66, 3-(1,4-Dimethyl-1H-benzo[d][1,2,3]triazol-5-yl)-3-(8-((R)-2-methyl-2,3-dihydrobenzo[f][1,4]oxazepin-4(5H)-yl)-5,6,7,8-tetrahydronaphthalen-2-yl)propanoic Acid] | 100 to 1000
17 | Cc1c(C(CC(=O)O)c2ccc3c(c2)C2C(CCN2C(=O)C(C)c2ccccc2)C3)ccc2c1nnn2C (stereo not shown) [Example 9, 3-(1,4-Dimethyl-1H-1,2,3-benzotriazol-5-yl)-3-[1-(2-phenylpropanoyl)-1H,2H,3H,3aH,4H,8bH-indeno[1,2-b]pyrrol-7-yl]propanoic Acid] | 1000 to 10000
18 | COc1cc(C(CC(=O)O)c2ccc3c(c2)C(N2Cc4ccccc4OC(C)(C)C2)CC3)cc2nnn(C)c12 (stereo not shown) [Example 43, 3-(3-(2,2-Dimethyl-2,3-dihydrobenzo[f][1,4]oxazepin-4(5H)-yl)-2,3-dihydro-1H-inden-5-yl)-3-(7-methoxy-1-methyl-1H-benzo[d][1,2,3]triazol-5-yl)propanoic Acid, Formate Salt] | 1 to 10
19 | CC[C@@H]1CN([C@@H]2CCc3ccc(C(c4ccc5c(nnn5C)c4C)C(C)(C)C(=O)O)cc32)Cc2cnccc2O1 (relative stereo) [Example 75, rel-(S)-3-(1,4-Dimethyl-1H-benzo[d][1,2,3]triazol-5-yl)-3-(rel-(R)-3-((R)-2-ethyl-2,3-dihydropyrido[3,4-f][1,4]oxazepin-4(5H)-yl)-2,3-dihydro-1H-inden-5-yl)-2,2-dimethylpropanoic acid] | 10 to 100
20 | Cc1c(C(CC(=O)O)c2ccc3c(c2)C2C(CC3)CC(=O)N2CC2CCCCC2)ccc2c1nnn2C (stereo not shown) [Example 19, 3-(1-(Cyclohexylmethyl)-2-oxo-2,3,3a,4,5,9b-hexahydro-1H-benzo[g]indol-8-yl)-3-(1,4-dimethyl-1H-benzo[d][1,2,3]triazol-5-yl)propanoic Acid] | 100 to 1000

Same assay, conditions: Homo sapiens, BEAS-2B, NQO1 specific enzyme activity in BEAS-2B cells; in some determinations; read-out: EC50 values in some determinations

Row | Compound | EC50 [nM]
21 | Cc1c(C(c2ccc3c(c2)C(N2Cc4ccccc4OC(C)(C)C2)CC3)C(C)(C)C(=O)O)ccc2c1nnn2C (stereo not shown) [Example 27, 3-(1,4-Dimethyl-1H-benzo[d][1,2,3]triazol-5-yl)-3-(3-(2,2-dimethyl-2,3-dihydrobenzo[f][1,4]oxazepin-4(5H)-yl)-2,3-dihydro-1H-inden-5-yl)-2,2-dimethylpropanoic Acid, 2 Formic Acid Salt] | < 0.17

Same assay, conditions: NQO1 specific enzyme activity induction in BEAS-2B cells, 48 hours; read-out: EC50

Row | Compound | EC50 [nM]
22 | Cc1c(C(CC(=O)O)c2ccc3c(c2)C2C(CCN2C(=O)C(C)c2ccccc2)C3)ccc2c1nnn2C (stereo not shown) [Example 8, 3-(1,4-Dimethyl-1H-1,2,3-benzotriazol-5-yl)-3-[1-(2-phenylpropanoyl)-1H,2H,3H,3aH,4H,8bH-indeno[1,2-b]pyrrol-7-yl]propanoic Acid] | 1000 to 10000
